According to patent US20250269072A1, “PROCESSES FOR PREPARING RADIOLABELLED CONJUGATES” (CENTENARY INSTITUTE OF CANCER MEDICINE AND CELL BIOLOGY, priority 2021, published 2025):
Several values for one entry are separate records, joined by “and”; a condition that tells them apart may be missing. Equal values may be shown once.

Legend:
[1] = Human studies: radiation dosimetry of subjects 1-4 (Olinda/EXM); format: in vivo
Protocol: For subjects 1-4, radiation dosimetry was calculated using Olinda/EXM based on the organ biodistribution discussed above.
Tables 7-10 show the estimate for radiation dosimetry for subjects 1˜4 of 200 MBq of ^68Ga NODAGA GSAO for individual organs and for the whole body in mSv/MBq (EDE cont.=effective dose equivalent contribution, ED Cont.=effective dose contribution). The estimated whole-body dose from the one (1) low dose CT and two (2) ultra-low dose CTs was 9.2 mSv.

[2] = Biodistribution in healthy male rats; format: in vivo, rats (Lewis); settings: rat
Protocol: Biodistribution was studied in ten healthy male rats (Lewis, Liverpool Hospital Animal Facility) aged 6-8 weeks. Five rats were administered with ^68Ga-NODAGA-GSAO. The rats were housed singly in a cage with impervious absorbent matting and at 1 hour post administration 5 rats were sacrificed by lethal carbon dioxide overdose. Immediately post mortem, blood was sampled via cardiac puncture. Two of the 5 rats were then imaged by PET CT (GE Discovery 710). The PET CT scan comprised a CT scan (80 kVp, 20 mA, helical mode, reconstructed slice thickness of 0.625 mm) followed by a PET scan (2 bed positions, 7.5 min/bed position, 256×256 reconstruction matrix, slice thickness 3.27 mm).
All of the rats were then dissected, organs sampled and weighed and counted in a gamma counter, and the cpm value converted to MBq using a known standard. The activity in the remaining carcass was measured in a dose calibrator.
Biodistribution studies were performed in a further 5 rats at two hours following ^68Ga-NODAGA GSAO administration.
Injected activity was corrected by measuring residual activity left in the syringe after injection in a dose calibrator. To correct for any dose extravasated at the injection site the tail was harvested and the activity in the tail was subtracted from the administered activity. All calculations were decayed corrected using the injection time as the reference.
Biodistribution was expressed as % ID/g and % ID/organ. % retained activity was the sum total of all activity in all individually harvested organs as well as the activity in the remaining carcass as a percentage of the injected dose. % recovered activity was the sum total of all activity in all individually harvested organs as well as the activity in the remaining carcass and excreted activity in the impervious matting as a percentage of the injected dose.

[3] = Red Marrow, subjects 1-4 = the 7th table-the 10th table
[4] = Skin, subjects 1-4 = the 7th table-the 10th table
[5] = Small Intestine, subjects 1-4 = the 7th table-the 10th table
[6] = Spleen, subjects 1-4 = the 7th table-the 10th table
[7] = Stomach Wall, subjects 1-4 = the 7th table-the 10th table
[8] = Testes, subject 1 = the 7th table, subject 3 = the 9th table
[9] = Thymus, subjects 1-4 = the 7th table-the 10th table
[10] = Thyroid, subjects 1-4 = the 7th table-the 10th table
[11] = Total Body, subjects 1-4 = the 7th table-the 10th table
[12] = ULI Wall, subjects 1-4 = the 7th table-the 10th table
[13] = Uterus, subjects 1-4 = the 7th table-the 10th table

## O=C(O)CNC(=O)[C@H](CSCC(=O)Nc1ccc([As](O)O)cc1)NC(=O)CC[C@H](NC(=O)CCC1C(=O)[O][68Ga]2[O]C(=O)CN3CCN(CCN1CC3)CC(=O)[O]2)C(=O)O (stereo partly drawn) [^68Ga-NODAGA-GSAO]
[1]; [3]
  ED Cont.: 1.09E−03 mSv/MBq and 1.30E−03 mSv/MBq and 8.70E−04 mSv/MBq and 1.13E−03 mSv/MBq
  EDE Cont.: 1.09E−03 mSv/MBq and 1.30E−03 mSv/MBq and 8.70E−04 mSv/MBq and 1.13E−03 mSv/MBq
  Photon dose: 3.70E−03 mSv/MBq and 4.24E−03 mSv/MBq and 2.96E−03 mSv/MBq and 4.13E−03 mSv/MBq
  Total dose: 9.08E−03 mSv/MBq and 1.08E−02 mSv/MBq and 7.25E−03 mSv/MBq and 9.38E−03 mSv/MBq
[1]; [4]
  Alpha dose: 0.00E+00 mSv/MBq
  ED Cont.: 5.17E−05 mSv/MBq and 7.01E−05 mSv/MBq and 3.66E−05 mSv/MBq and 5.79E−05 mSv/MBq
  EDE Cont.: 0.00E+00 mSv/MBq
  Photon dose: 2.03E−03 mSv/MBq and 2.32E−03 mSv/MBq and 1.63E−03 mSv/MBq and 2.26E−03 mSv/MBq
  Total dose: 5.17E−03 mSv/MBq and 7.01E−03 mSv/MBq and 3.66E−03 mSv/MBq and 5.79E−03 mSv/MBq
[1]; [5]
  Alpha dose: 0.00E+00 mSv/MBq
  ED Cont.: 7.19E−05 mSv/MBq and 9.14E−05 mSv/MBq and 6.51E−05 mSv/MBq and 4.60E−05 mSv/MBq
  EDE Cont.: 0.00E+00 mSv/MBq
  Photon dose: 5.21E−03 mSv/MBq and 5.57E−03 mSv/MBq and 4.29E−03 mSv/MBq and 5.67E−03 mSv/MBq
  Total dose: 1.44E−02 mSv/MBq and 1.83E−02 mSv/MBq and 1.30E−02 mSv/MBq and 9.20E−03 mSv/MBq
[1]; [6]
  Alpha dose: 0.00E+00 mSv/MBq
  Beta dose: 1.27E−02 mSv/MBq and 1.48E−02 mSv/MBq and 1.09E−02 mSv/MBq and 1.18E−02 mSv/MBq
  ED Cont.: 8.65E−05 mSv/MBq and 1.01E−04 mSv/MBq and 7.35E−05 mSv/MBq and 8.27E−05 mSv/MBq
  Photon dose: 4.57E−03 mSv/MBq and 5.34E−03 mSv/MBq and 3.83E−03 mSv/MBq and 4.70E−03 mSv/MBq
  Total dose: 1.73E−02 mSv/MBq and 2.02E−02 mSv/MBq and 1.47E−02 mSv/MBq and 1.65E−02 mSv/MBq
[1]; [7]
  Alpha dose: 0.00E+00 mSv/MBq
  EDE Cont.: 0.00E+00 mSv/MBq
  Photon dose: 3.93E−03 mSv/MBq and 4.97E−03 mSv/MBq and 3.12E−03 mSv/MBq and 4.01E−03 mSv/MBq
[1]; [8]
  Alpha dose: 0.00E+00 mSv/MBq
  Beta dose: 1.37E−02 mSv/MBq and 1.22E−02 mSv/MBq
  ED Cont.: 3.65E−03 mSv/MBq and 3.27E−03 mSv/MBq
  EDE Cont.: 4.56E−03 mSv/MBq and 4.09E−03 mSv/MBq
  Photon dose: 4.58E−03 mSv/MBq and 4.18E−03 mSv/MBq
  Total dose: 1.83E−02 mSv/MBq and 1.64E−02 mSv/MBq
[1]; [9]
  Alpha dose: 0.00E+00 mSv/MBq
  ED Cont.: 3.06E−05 mSv/MBq and 4.18E−05 mSv/MBq and 2.16E−05 mSv/MBq and 3.38E−05 mSv/MBq
  EDE Cont.: 0.00E+00 mSv/MBq
  Photon dose: 2.96E−03 mSv/MBq and 3.66E−03 mSv/MBq and 2.30E−03 mSv/MBq and 3.23E−03 mSv/MBq
  Total dose: 6.11E−03 mSv/MBq and 8.36E−03 mSv/MBq and 4.32E−03 mSv/MBq and 6.76E−03 mSv/MBq
[1]; [10]
  Alpha dose: 0.00E+00 mSv/MBq
  Beta dose: 1.12E−02 mSv/MBq and 1.19E−02 mSv/MBq and 8.46E−03 mSv/MBq and 1.34E−02 mSv/MBq
  ED Cont.: 7.05E−04 mSv/MBq and 7.59E−04 mSv/MBq and 5.42E−04 mSv/MBq and 8.18E−04 mSv/MBq
  EDE Cont.: 4.23E−04 mSv/MBq and 4.55E−04 mSv/MBq and 3.25E−04 mSv/MBq and 4.91E−04 mSv/MBq
  Photon dose: 2.86E−03 mSv/MBq and 3.24E−03 mSv/MBq and 2.38E−03 mSv/MBq and 3.00E−03 mSv/MBq
  Total dose: 1.41E−02 mSv/MBq and 1.52E−02 mSv/MBq and 1.08E−02 mSv/MBq and 1.64E−02 mSv/MBq
[1]; [11]
  Alpha dose: 0.00E+00 mSv/MBq
  Beta dose: 6.33E−03 mSv/MBq and 7.76E−03 mSv/MBq and 4.94E−03 mSv/MBq and 6.96E−03 mSv/MBq
  ED Cont.: 0.00E+00 mSv/MBq
  EDE Cont.: 0.00E+00 mSv/MBq
  Photon dose: 3.44E−03 mSv/MBq and 3.84E−03 mSv/MBq and 2.77E−03 mSv/MBq and 3.92E−03 mSv/MBq
  Total dose: 9.78E−03 mSv/MBq and 1.16E−02 mSv/MBq and 7.71E−03 mSv/MBq and 1.09E−02 mSv/MBq
[1]; [12]
  Alpha dose: 0.00E+00 mSv/MBq
  EDE Cont.: 0.00E+00 mSv/MBq
  Photon dose: 5.20E−03 mSv/MBq and 6.02E−03 mSv/MBq and 4.00E−03 mSv/MBq and 5.50E−03 mSv/MBq
[1]; Urinary Bladder Wall, subjects 1-4 = the 7th table-the 10th table
  Alpha dose: 0.00E+00 mSv/MBq
[1]; [13]
  Alpha dose: 0.00E+00 mSv/MBq
  Photon dose: 1.06E−02 mSv/MBq and 8.98E−03 mSv/MBq and 8.36E−03 mSv/MBq and 1.51E−02 mSv/MBq
[1]; administered activity of 200 MBq
  estimated effective whole-body dose: 4.3-6.8 mSv
[1]; first in human protocol incl. CTs, subjects 1-4
  estimated effective whole-body dose for the protocol: 13.5-15.9 mSv
[1]; range over subjects 1-4
  effective whole-body dose: 2.16×10^−2 to 3.38×10^−2 mSv/MBq
[1]; subject 1
  overall estimated radiation dose: 14.5 mSv
[1]; subject 2
  overall estimated radiation dose: 13.9 mSv
[1]; subject 3
  overall estimated radiation dose: 13.5 mSv
[1]; subject 4
  overall estimated radiation dose: 15.9 mSv
[1]; whole body, subjects 1-4 = the 7th table-the 10th table
  Effective Dose: 2.63E−02 mSv/MBq and 2.35E−02 mSv/MBq and 2.16E−02 mSv/MBq and 3.38E−02 mSv/MBq
[2]; 1 hour
  injected activity retained within the animal: 32.4%
  mean total recovered activity: 84.9 % of injected activity
[2]; 2 hours
  injected activity retained within the animal: 21.4%
  total recovered activity: 75.3 % of injected activity
